The values below come from ChEMBL document CHEMBL1126241, “Synthesis, characterization, and Ca2+ antagonistic activity of diltiazem metabolites” (J Med Chem, 1992).

Molecules are shown by their SMILES.

In general, IC50 refers to the concentration at which inhibition is half-maximal. Lower therefore signals greater potency in that assay.

This experiment concerns Cricetinae gen. sp. Nature of the experiment: Concentration (10 e-6 M) required to block [Ca2+]-induced contraction of K+-depolarized hamster aorta. It counts as functional.
On to `CC(=O)OC1C(=O)N(CCN(C)C)c2ccccc2SC1c1ccc(O)cc1` (configuration not stated), for which half-maximal inhibition (IC50) required 40.4 µM.
The figure for `CN(C)CCN1C(=O)C(O)C(c2ccc(O)cc2)Sc2ccccc21` (configuration not stated) is 45.5 µM; for `CNCCN1C(=O)C(OC(C)=O)C(c2ccc(OC)cc2)Sc2ccccc21` (configuration not stated) it is 3.27 µM; for `CNCCN1C(=O)C(O)C(c2ccc(O)cc2)Sc2ccccc21` (configuration not stated) it is 127 µM.
In turn, `CNCCN1C(=O)C(O)C(c2ccc(OC)cc2)Sc2ccccc21` (configuration not stated) showed an IC50 of 20.2 µM.
Turning to `CNCCN1C(=O)C(OC(C)=O)C(c2ccc(O)cc2)Sc2ccccc21` (configuration not stated), inhibition was half-maximal at 112 µM (IC50).
As to `COc1ccc([C@@H]2Sc3ccccc3N(CCN(C)C)C(=O)[C@@H]2OC(C)=O)cc1` [DILTIAZEM], the IC50 is 0.98 µM.
